Test results taken from ChEMBL document CHEMBL4004821, “Design and synthesis of novel tetrandrine derivatives as potential anti-tumor agents against human hepatocellular carcinoma” (Eur J Med Chem, 2017).

What was measured:
[1] = Cytotoxicity against human MHCC97L cells assessed as growth inhibition after 24 hrs by MTT assay; format: functional, cell-based
PLC-PRF-5 = assay: Cytotoxicity against human PLC/PRF/5 cells assessed as growth inhibition after 24 hrs by MTT assay; format: functional, cell-based; details: PLC-PRF-5, 24 h

Row | Compound | IC50 [1] | IC50 (PLC-PRF-5)
1 | COC(=O)C(=O)Nc1cc(OC)c2cc1C[C@H]1c3c(cc(OC)c(OC)c3Oc3cc4c(cc3OC)CCN(C)[C@H]4Cc3ccc(cc3)O2)CCN1C | 2.46 µM | 3.72 µM
2 | COc1cc(NC(=O)C(C)(C)C)c2cc1Oc1ccc(cc1)C[C@H]1c3cc(c(OC)cc3CCN1C)Oc1c(OC)c(OC)cc3c1[C@H](C2)N(C)CC3 | 6.4 µM | 5.37 µM
3 | COc1cc(NC(=O)c2cccs2)c2cc1Oc1ccc(cc1)C[C@H]1c3cc(c(OC)cc3CCN1C)Oc1c(OC)c(OC)cc3c1[C@H](C2)N(C)CC3 | 11.9 µM | 9.01 µM
4 | COc1cc(NC(=O)c2ccc(C(F)(F)F)cc2)c2cc1Oc1ccc(cc1)C[C@H]1c3cc(c(OC)cc3CCN1C)Oc1c(OC)c(OC)cc3c1[C@H](C2)N(C)CC3 | 8.41 µM | 9.49 µM
5 | COc1cc(NC(=O)c2ccc(Br)cc2)c2cc1Oc1ccc(cc1)C[C@H]1c3cc(c(OC)cc3CCN1C)Oc1c(OC)c(OC)cc3c1[C@H](C2)N(C)CC3 | 4.4 µM | 7.76 µM
6 | COc1cc(NC(=O)C2CC=CC2)c2cc1Oc1ccc(cc1)C[C@H]1c3cc(c(OC)cc3CCN1C)Oc1c(OC)c(OC)cc3c1[C@H](C2)N(C)CC3 | 5.76 µM | 6.42 µM
7 | COc1cc(NC(=O)C=C(C)C)c2cc1Oc1ccc(cc1)C[C@H]1c3cc(c(OC)cc3CCN1C)Oc1c(OC)c(OC)cc3c1[C@H](C2)N(C)CC3 | 6.31 µM | 7.63 µM
8 | CNC(=O)c1cc(Oc2ccc(NC(=O)Nc3ccc(Cl)c(C(F)(F)F)c3)cc2)ccn1 [SORAFENIB] | 34.4 µM | 29.9 µM
9 | COc1cc(NC(=O)CO)c2cc1Oc1ccc(cc1)C[C@H]1c3cc(c(OC)cc3CCN1C)Oc1c(OC)c(OC)cc3c1[C@H](C2)N(C)CC3 | 9.09 µM | 10.2 µM
10 | C=CC(=O)Nc1cc(OC)c2cc1C[C@H]1c3c(cc(OC)c(OC)c3Oc3cc4c(cc3OC)CCN(C)[C@H]4Cc3ccc(cc3)O2)CCN1C | 10.4 µM | 10.7 µM
11 | COc1cc(NC(=O)c2ccccc2)c2cc1Oc1ccc(cc1)C[C@H]1c3cc(c(OC)cc3CCN1C)Oc1c(OC)c(OC)cc3c1[C@H](C2)N(C)CC3 | 7.8 µM | 9.16 µM
12 | COc1cc(NC(=O)CCCl)c2cc1Oc1ccc(cc1)C[C@H]1c3cc(c(OC)cc3CCN1C)Oc1c(OC)c(OC)cc3c1[C@H](C2)N(C)CC3 | 9.21 µM | 6.28 µM
13 | COc1cc(NC(=O)C(F)(F)F)c2cc1Oc1ccc(cc1)C[C@H]1c3cc(c(OC)cc3CCN1C)Oc1c(OC)c(OC)cc3c1[C@H](C2)N(C)CC3 | 2.41 µM | 2.24 µM
14 | COc1cc(NC(=O)c2ccc(Cl)c(Cl)c2)c2cc1Oc1ccc(cc1)C[C@H]1c3cc(c(OC)cc3CCN1C)Oc1c(OC)c(OC)cc3c1[C@H](C2)N(C)CC3 | 3.81 µM | 6.82 µM
15 | COc1cc(NC(=O)c2cccc3ccccc23)c2cc1Oc1ccc(cc1)C[C@H]1c3cc(c(OC)cc3CCN1C)Oc1c(OC)c(OC)cc3c1[C@H](C2)N(C)CC3 | 5.63 µM | 5.56 µM
16 | COc1cc(NC(=O)c2c(Cl)cc(Cl)cc2Cl)c2cc1Oc1ccc(cc1)C[C@H]1c3cc(c(OC)cc3CCN1C)Oc1c(OC)c(OC)cc3c1[C@H](C2)N(C)CC3 | 4.12 µM | 6.54 µM
17 | COc1cc(NC(=O)CCBr)c2cc1Oc1ccc(cc1)C[C@H]1c3cc(c(OC)cc3CCN1C)Oc1c(OC)c(OC)cc3c1[C@H](C2)N(C)CC3 | 7.86 µM | 6.34 µM
18 | COc1cc(NC(=O)c2cccc(Cl)c2)c2cc1Oc1ccc(cc1)C[C@H]1c3cc(c(OC)cc3CCN1C)Oc1c(OC)c(OC)cc3c1[C@H](C2)N(C)CC3 | 3.67 µM | 7.63 µM

Row | Compound | IC50 [1] | IC50 (PLC-PRF-5)
19 | COc1cc(NC(=O)C2CCCO2)c2cc1Oc1ccc(cc1)C[C@H]1c3cc(c(OC)cc3CCN1C)Oc1c(OC)c(OC)cc3c1[C@H](C2)N(C)CC3 (some centres not stated) | 5.66 µM | 7.32 µM
20 | CCCCCC(=O)Nc1cc(OC)c2cc1C[C@H]1c3c(cc(OC)c(OC)c3Oc3cc4c(cc3OC)CCN(C)[C@H]4Cc3ccc(cc3)O2)CCN1C | 12.6 µM | 10.3 µM
21 | C=CCCCCCCCCC(=O)Nc1cc(OC)c2cc1C[C@H]1c3c(cc(OC)c(OC)c3Oc3cc4c(cc3OC)CCN(C)[C@H]4Cc3ccc(cc3)O2)CCN1C | 10.8 µM | 11.3 µM
22 | COc1cc(NC(=O)c2ccccc2Cl)c2cc1Oc1ccc(cc1)C[C@H]1c3cc(c(OC)cc3CCN1C)Oc1c(OC)c(OC)cc3c1[C@H](C2)N(C)CC3 | 2.81 µM | 12.1 µM
23 | COc1cc(NC(=O)C(Cl)(Cl)Cl)c2cc1Oc1ccc(cc1)C[C@H]1c3cc(c(OC)cc3CCN1C)Oc1c(OC)c(OC)cc3c1[C@H](C2)N(C)CC3 | 4.26 µM | 3.22 µM
24 | COc1cc(NC(=O)c2ccc(Cl)cc2Cl)c2cc1Oc1ccc(cc1)C[C@H]1c3cc(c(OC)cc3CCN1C)Oc1c(OC)c(OC)cc3c1[C@H](C2)N(C)CC3 | 1.7 µM | 8.24 µM
25 | COc1ccc(C(=O)Nc2cc(OC)c3cc2C[C@H]2c4c(cc(OC)c(OC)c4Oc4cc5c(cc4OC)CCN(C)[C@H]5Cc4ccc(cc4)O3)CCN2C)cc1 | 12 µM | 5.32 µM
26 | COc1cc(NC(=O)C2CC2)c2cc1Oc1ccc(cc1)C[C@H]1c3cc(c(OC)cc3CCN1C)Oc1c(OC)c(OC)cc3c1[C@H](C2)N(C)CC3 | 7.68 µM | 6.45 µM
27 | COc1cc(NC(C)=O)c2cc1Oc1ccc(cc1)C[C@H]1c3cc(c(OC)cc3CCN1C)Oc1c(OC)c(OC)cc3c1[C@H](C2)N(C)CC3 | 12.2 µM | 12.3 µM
28 | COc1cc(NC(=O)c2ccoc2)c2cc1Oc1ccc(cc1)C[C@H]1c3cc(c(OC)cc3CCN1C)Oc1c(OC)c(OC)cc3c1[C@H](C2)N(C)CC3 | 3.22 µM | 1.89 µM
29 | COc1cc(NC(=O)CCCCl)c2cc1Oc1ccc(cc1)C[C@H]1c3cc(c(OC)cc3CCN1C)Oc1c(OC)c(OC)cc3c1[C@H](C2)N(C)CC3 | 9.76 µM | 7.22 µM
30 | COc1cc(NC(=O)/C=C/c2ccccc2)c2cc1Oc1ccc(cc1)C[C@H]1c3cc(c(OC)cc3CCN1C)Oc1c(OC)c(OC)cc3c1[C@H](C2)N(C)CC3 | 7.7 µM | 9.81 µM
31 | COc1cc(NC(=O)c2ccc(Cl)cc2)c2cc1Oc1ccc(cc1)C[C@H]1c3cc(c(OC)cc3CCN1C)Oc1c(OC)c(OC)cc3c1[C@H](C2)N(C)CC3 | 10.3 µM | 11.9 µM
32 | COc1cc(NC(=O)OCC(C)C)c2cc1Oc1ccc(cc1)C[C@H]1c3cc(c(OC)cc3CCN1C)Oc1c(OC)c(OC)cc3c1[C@H](C2)N(C)CC3 | 1.4 µM | 4.66 µM
33 | COc1cc(NC(=O)c2cc[nH]n2)c2cc1Oc1ccc(cc1)C[C@H]1c3cc(c(OC)cc3CCN1C)Oc1c(OC)c(OC)cc3c1[C@H](C2)N(C)CC3 | 4.17 µM | 2.24 µM
34 | COc1ccc2cc1Oc1ccc(cc1)C[C@H]1c3cc(c(OC)cc3CCN1C)Oc1c(OC)c(OC)cc3c1[C@H](C2)N(C)CC3 [FANCHININ] | 15 µM | 18.5 µM
35 | COc1cc(NC(=O)c2ccc([N+](=O)[O-])o2)c2cc1Oc1ccc(cc1)C[C@H]1c3cc(c(OC)cc3CCN1C)Oc1c(OC)c(OC)cc3c1[C@H](C2)N(C)CC3 | 2.11 µM | 2.5 µM
36 | COc1cc(NC(=O)COC(C)=O)c2cc1Oc1ccc(cc1)C[C@H]1c3cc(c(OC)cc3CCN1C)Oc1c(OC)c(OC)cc3c1[C@H](C2)N(C)CC3 | 8.41 µM | 10.2 µM
